We go through 17 compounds from patent US11634447B2 (priority 2012, dated 2023).

Structures are written as SMILES. Where “and” joins values, the source holds several entries; their conditions need not be identical. Identical values can stand only once.

One experiment relates to bacterial strain LF82 binding to the glycoprotein BSA-(Mannose)3. In words: Bacterial Binding Assay (BBA). The experiment is classed as cell-based, Escherichia coli. Conditions: read-out: Bacterial Binding Assay IC50, LF82/Luciferase strain binding to BSA-(Man)3 coated plates, luminescence. In a few lines: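 Inhibition of LF82/luciferase E. coli adhesion is read as luminescence after washing off unbound cells. Compound and bacteria (10^7 per well) are co-incubated 40-75 min at room temperature on wells coated with 0.5-2 μg/mL BSA-(Man)3, with BSA-only wells as background; IC50 values derived.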
Turning to `O=C1c2cc(C#C[C@H]3O[C@H](CO)[C@@H](O)[C@H](O)[C@@H]3O)ccc2-c2ccc(C#C[C@H]3O[C@H](CO)[C@@H](O)[C@H](O)[C@@H]3O)cc21` [Compound 119, 2,7-bis[2-[(2R,3S,4R,5S,6R)-3,4,5-trihydroxy-6-(hydroxymethyl)tetrahydropyran-2-yl]ethynyl]fluoren-9-one], the IC50 stood at 14 nM.
For `CN1CCC(n2c3cc(C#C[C@H]4O[C@H](CO)[C@@H](O)[C@H](O)[C@@H]4O)ccc3c3ccc(C#C[C@H]4O[C@H](CO)[C@@H](O)[C@H](O)[C@@H]4O)cc32)CC1` [Compound 187, (2R,3S,4R,5S,6R)-2-(hydroxymethyl)-6-[2-[9-(1-methyl-4-piperidyl)-7-[2-[(2R,3S,4R,5S,6R)-3,4,5-trihydroxy-6-(hydroxymethyl)tetrahydropyran-2-yl]ethynyl]carbazol-2-yl]ethynyl]tetrahydropyran-3,4,5-triol], the IC50 came to 1 nM.
`Cc1cc(C#C[C@H]2O[C@H](CO)[C@@H](O)[C@H](O)[C@@H]2O)ccc1[C@H]1O[C@H](CO)[C@@H](O)[C@H](O)[C@@H]1O` [Compound 142]: the IC50 was 91 nM.
As for `CN(C)CCN(C)C1c2cc(C#C[C@H]3O[C@H](CO)[C@@H](O)[C@H](O)[C@@H]3O)ccc2-c2ccc(C#C[C@H]3O[C@H](CO)[C@@H](O)[C@H](O)[C@@H]3O)cc21` [Compound 213, (2R,3S,4R,5S,6R)-2-[2-[9-[2-(dimethylamino)ethyl-methyl-amino]-7-[2-[(2R,3S,4R,5S,6R)-3,4,5-trihydroxy-6-(hydroxymethyl)tetrahydropyran-2-yl]ethynyl]-9H-fluoren-2-yl]ethynyl]-6-(hydroxymethyl)tetrahydropyran-3,4,5-triol], the IC50 came to 3.7 nM.
With `OC[C@H]1O[C@H](C#Cc2ccc(C#C[C@H]3O[C@H](CO)[C@@H](O)[C@H](O)[C@@H]3O)c(OC(F)F)c2)[C@@H](O)[C@@H](O)[C@@H]1O` [Compound 92, (2R,3S,4R,5S,6R)-2-[2-[3-(difluoromethoxy)-4-[2-[(2R,3S,4R,5S,6R)-3,4,5-trihydroxy-6-(hydroxymethyl)tetrahydropyran-2-yl]ethynyl]phenyl]ethynyl]-6-(hydroxymethyl)tetrahydropyran-3,4,5-triol], the IC50 turned out to be 36 nM.
Consider `[2H]C([2H])([2H])OCCn1c2cc(C#C[C@H]3O[C@H](CO)[C@@H](O)[C@H](O)[C@@H]3O)ccc2c2ccc(C#C[C@H]3O[C@H](CO)[C@@H](O)[C@H](O)[C@@H]3O)cc21` [Compound 183, (2R,3S,4R,5S,6R)-2-(Hydroxymethyl)-6-[2-[9-[2-(trideuteriomethoxy)ethyl]-7-[2-[(2R,3S,4R,5S,6R)-3,4,5-trihydroxy-6-(hydroxymethyl)tetrahydropyran-2-yl]ethynyl]carbazol-2-yl]ethynyl]tetrahydropyran-3,4,5-triol], for which the IC50 was 0.76 nM.
The same measure, in the same setting: in the case of `CCOC(=O)Cn1c2cc(C#C[C@H]3O[C@H](CO)[C@@H](O)[C@H](O)[C@@H]3O)ccc2c2ccc(C#C[C@H]3O[C@H](CO)[C@@H](O)[C@H](O)[C@@H]3O)cc21` [Compound 175, ethyl 2-[2,7-bis[2-[(2R,3S,4R,5S,6R)-3,4,5-trihydroxy-6-(hydroxymethyl)tetrahydropyran-2-yl]ethynyl]carbazol-9-yl]acetate] it was 6.5 nM.

For another experiment, the target named is T1, FimH-CRD (Escherichia coli, UniProt P08191).
T1 construct: The first 177 amino acids of the FimH protein are expressed as a fusion protein; thrombin tag (printed as 'fusion protein with thrombin') (cleaved yes); made in house; host or cells: bacteria (pET21b plasmid)
T1 sequence (P08191 22-177): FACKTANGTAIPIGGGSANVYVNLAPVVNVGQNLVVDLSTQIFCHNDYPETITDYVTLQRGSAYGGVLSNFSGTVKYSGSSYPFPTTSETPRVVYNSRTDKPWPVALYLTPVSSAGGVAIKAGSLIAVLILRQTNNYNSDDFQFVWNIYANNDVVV
As to the kind of experiment: Competitive binding assay by fluorescence polarization, assay 1 (compounds prepared by manual dilution). More on the design: species or system E. coli. Particulars: Assay 1 Kd, 5 nM Alexa 647 mannoside probe, 60 nM FimH-CRD, replicate values in one cell. The protocol:
The first 177 amino acids of the FimH protein are expressed as a fusion protein with thrombin in a pET21b plasmid in bacteria. This FimH protein sequence contains the carbohydrate recognition domain (CRD) and shall be termed FimH-CRD. Following bacterial expression of the protein, the FimH-CRD protein is purified to homogeneity and the thrombin tag removed by protease cleavage. A competitive binding assay by fluorescence polarization is performed using 5 nM of the Alexa 647 mannoside probe and 60 nM of the FimH-CRD. The samples are assayed in a low volume 384 well microtiter plate in a final volume of 20 μl. The final assay buffer conditions are the following, 50 mM Tris-Cl, ph 7.0, 100 mM NaCl, 1 mM EDTA, 5 mM β-mercaptoethanol, 0.05% BSA and 2.5% DMSO. Two assays are performed for FimH, termed assay 1 or assay 2. The assay conditions are the same for both assays except the following: assay 1 has compounds prepared by manual dilution in a serial dilution factor with 12-point dose response while assay 2 has compounds prepared by a robotics system also through a serial dilution factor (12 point dose response) and initially prepared in duplicate in 384 well-Corning polypropylene round bottom plates. The assay 2 plates have compound which is then frozen and must be thawed prior to use. Initially the Alexa 647 probe and the FimH-CRD are added to the assay buffer and then 0.5 μl of test compound (assay 1 or 2) between 0.4 nM to 75 μM final concentration are added (12 point titration with 3-fold serial dilution). Control wells for the Alexa 647 probe are prepared with the same conditions except for the addition of the FimH-CRD protein. Plates are then incubated for 5 hrs at room temperature in the dark and under humid conditions to prevent drying. Plates are read using the SpectraMax Paradigm multi-mode plate reader and the appropriate fluorescent polarization detection cartridge (Alexa-647).
Alexa 647 mannoside probe is prepared using the similar procedure reported for FAM mannoside (Han, Z. et. al., 2010, J. Med. Chem., 53, 4779) and is described in the scheme below.
To a blue colored stirred solution of (2S,3S,4S,5S,6R)-2-(4-aminobutoxy)-6-(hydroxymethyl)tetrahydropyran-3,4,5-triol (2.21 mg, 0.009 mmol) and the (2E)-2-[(2E,4E)-5-[3,3-dimethyl-5-sulfonato-1-(3-sulfonatopropyl)indol-1-ium-2-yl]penta-2,4-dienylidene]-3-[6-(2,5-dioxopyrrolidin-1-yl)oxy-6-oxo-hexyl]-3-methyl-1-(3-sulfonatopropyl)indoline-5-sulfonate (Potassium Ion (3)) (4.9 mg, 0.0044 mmol) in DMF (44 μL) is added Et3N (5.4 mg, 7.0 μL, 0.053 mmol) at RT. The solution is stirred at room temperature over night, concentrated, dissolved in water and purified on 12 g C-18 silica gel cartridge on Isolera system using acetonitrile in water (0 to 40%, 10 CV) and followed by lyophilization to afford Alexa 647 mannoside probe (3.3 mg, 34%) as deep blue solid.
The Kd values of the compounds are determined from dose response curves using twelve concentrations per compound in duplicate. Curves are fitted to data points using Fluorescence Polarization competitive displacement analysis, and Kds are interpolated from the resulting curves using GraphPad Prism software, version […] (GraphPad software Inc., San Diego, Calif., USA).
With `OC[C@H]1O[C@H](Oc2cccc([C@H]3O[C@H](CO)[C@@H](O)[C@H](O)[C@@H]3O)c2)[C@@H](O)[C@@H](O)[C@@H]1O` [Compound 17, ((2R,3S,4R,5S,6R)-2-(Hydroxymethyl)-6-[3-[(2R,3S,4S,5S,6R)-3,4,5-trihydroxy-6-(hydroxymethyl)tetrahydropyran-2-yl]oxyphenyl]tetrahydropyran-3,4,5-triol)], the dissociation constant Kd is < 5 nM and 6 nM.
Turning to `CC(C)Oc1ccc([C@H]2O[C@H](CO)[C@@H](O)[C@H](O)[C@@H]2O)cc1[C@H]1O[C@H](CO)[C@@H](O)[C@H](O)[C@@H]1O` [Compound 4], the equilibrium dissociation constant (Kd) is 68 nM and 96 nM.
Regarding `O=C(C[C@H]1O[C@H](CO)[C@@H](O)[C@H](O)[C@@H]1O)Nc1ccc(NC(=O)C[C@H]2O[C@H](CO)[C@@H](O)[C@H](O)[C@@H]2O)cc1` [Compound 43, (2-[(2R,3S,4R,5S,6R)-3,4,5-Trihydroxy-6-(hydroxymethyl)tetrahydropyran-2-yl]-N-[4-[[2-[(2R,3S,4R,5,6R)-3,4,5-trihydroxy-6-(hydroxymethyl)tetrahydropyran-2-yl]acetyl]amino]phenyl]acetamide)], the Kd is 20 nM and 27 nM.
The same measure, in the same setting: in the case of `C#CCN(Cc1cn([C@H]2O[C@H](CO)[C@@H](O)[C@H](O)[C@@H]2O)nn1)Cc1cn([C@H]2O[C@H](CO)[C@@H](O)[C@H](O)[C@@H]2O)nn1` [Compound 20] it was 58 nM and 96 nM; in that of `OC[C@H]1O[C@H](c2ccc(-c3cn([C@H]4O[C@H](CO)[C@@H](O)[C@H](O)[C@@H]4O)nn3)cc2)[C@@H](O)[C@@H](O)[C@@H]1O` [Compound 21, ((2R,3S,4R,5S,6R)-2-(Hydroxymethyl)-6-(4-(1-((2S,3S,4S,5S,6R)-3,4,5-trihydroxy-6-(hydroxymethyl)tetrahydro-2H-pyran-2-yl)-1H-1,2,3-triazol-4-yl)phenyl)tetrahydro-2H-pyran-3,4,5-triol)], < 5 nM (2×) and 9 nM; in that of `O=C(Nc1ccc(NC(=O)c2cccc([C@H]3O[C@H](CO)[C@@H](O)[C@H](O)[C@@H]3O)c2)cc1)c1cccc([C@H]2O[C@H](CO)[C@@H](O)[C@H](O)[C@@H]2O)c1` [Compound 7, (3-[(2R,3S,4R,5S,6R)-3,4,5-Trihydroxy-6-(hydroxymethyl)tetrahydropyran-2-yl]-N-[4-[[3-[(2R,3S,4R,5S,6R)-3,4,5-trihydroxy-6-(hydroxymethyl)tetrahydropyran-2-yl]benzoyl]amino]phenyl]benzamide)], 17 nM and 11 nM.
`O=C(NCCCCCCCNC(=O)c1cccc([C@H]2O[C@H](CO)[C@@H](O)[C@H](O)[C@@H]2O)c1)c1cccc([C@H]2O[C@H](CO)[C@@H](O)[C@H](O)[C@@H]2O)c1` [Compound 13, (R,R,S,R,S)-N,N′-(Heptane-1,7-diyl)bis(3-((2R,3S,4R,5S,6R)-3,4,5-trihydroxy-6-(hydroxymethyl)tetrahydro-2H-pyran-2-yl)benzamide)]: the equilibrium dissociation constant (Kd) was 17 nM and 12 nM.
Same read-out and setting: to `OC[C@H]1O[C@H](C/C=C/c2ccc(C#Cc3ccc([C@H]4O[C@H](CO)[C@@H](O)[C@H](O)[C@@H]4O)cc3)cc2)[C@@H](O)[C@@H](O)[C@@H]1O` [Compound 34, ((2R,3 S,4R,5S,6R)-2-(Hydroxymethyl)-6-[(E)-3-[4-[2-[4-[(2R,3S,4R,5S,6R)-3,4,5-trihydroxy-6-(hydroxymethyl)tetrahydropyran-2-yl]phenyl]ethynyl]phenyl]allyl]tetrahydropyran-3,4,5-triol)] belongs < 5 nM and 6 nM.
With `O=C(NCCCCNC(=O)c1cccc([C@H]2O[C@H](CO)[C@@H](O)[C@H](O)[C@@H]2O)c1)c1cccc([C@H]2O[C@H](CO)[C@@H](O)[C@H](O)[C@@H]2O)c1` [Compound 10, (R,R,S,R,S)-N,N′-(Butane-1,4-diyl)bis(3-((2R,3S,4R,5S,6R)-3,4,5-trihydroxy-6-(hydroxymethyl)tetrahydro-2H-pyran-2-yl)benzamide)], the Kd was 9 nM and 15 nM.
On the same count and under the same terms, in the case of `O=C(NCCCCCCNC(=O)c1cccc([C@H]2O[C@H](CO)[C@@H](O)[C@H](O)[C@@H]2O)c1)c1cccc([C@H]2O[C@H](CO)[C@@H](O)[C@H](O)[C@@H]2O)c1` [Compound 12, (R,R,S,R,S)-N,N′-(Hexane-1,6-diyl)bis(3-((2R,3S,4R,5S,6R)-3,4,5-trihydroxy-6-(hydroxymethyl)tetrahydro-2H-pyran-2-yl)benzamide)] it was 14 nM and 18 nM.
